Columns and labels:
[1] = tested on: Cas9-expressing HCT116 cells; experiment: Genome-wide pooled CRISPR/Cas9 knockout screen in HCT116; type: cell-based, human
Excerpt: To gain insight into the mechanism of 9 and the relevance of Nam, we pursued two independent and complementary unbiased genetic approaches. First, we performed a genome-wide pooled Clustered Regularly Interspaced Short Palindromic Repeats (CRISPR) and CRISPR-associated protein 9 (Cas9) knockout screen to identify genes whose loss of function can enhance or suppress compound 9 activity. […] We cultured Cas9-expressing HCT116 cells in 10% FBS Nam-free DMEM and transduced with a lentiviral single guide RNA (sgRNA) library designed to silence 19,114 human genes.^11 These cells were treated with either vehicle (DMSO) or 9 for 30 days by which time the 9-treated cells had 7.6 fewer population doublings. Then, relative sgRNA sequences in the resulting cells were determined by massively parallel sequencing of PCR products amplified from genomic DNA, and the relative impact of each gene was derived from the sgRNA reads.
These observations, taken together, support the hypothesis that the activity of compound 9 depends on NAMPT and NMNAT1.

iHCT116 cells = experiment: Forward genetics resistance selection (IAA-inducible mutagenesis); type: cell-based
Excerpt: Second, we screened for resistance to 9 in iHCT116 cells, a system that uses inducible mutagenesis and forward genetics to find compound-resistant mutations and thus can reveal both loss of function and gain of function alleles that suppress activity. The iHCT116 system is a barcoded cell line in which we temporally control mutagenesis by the addition of indole acetic acid (IAA) mediated degradation of the mismatch repair protein MLH1.^12 MLN4924 is a small molecule toxin that we use as a positive control to verify that IAA treatment leads to increased mutations. By degrading MLH1 and increasing the overall mutation rate, IAA treatment increases the frequency of UBA3 mutations, leading to a higher rate of MLN4924 resistance. […] Having previously established a relationship between either NMNAT1 levels or NAMPT activity and compound resistance, we analyzed the levels of both enzymes in multiple resistant clones that harbored unique barcode sequences. […] To test whether reduced NMNAT1 levels in these clones contributed to resistance, we ectopically expressed NMNAT1 in either the parental cells or a representative resistant clone with low NMNAT1 expression.

[2] = Levels of 9 in media and cells over time; type: cell-based
Excerpt: Given that compound 21 (1) and 9 both resemble and are rescued by Nam, and the fact that the NAD salvage pathway is essential for toxicity, we considered that these two compounds may themselves be substrates in the NAD salvage pathway. In this model, we would predict that the compounds would be metabolized in cells, and that excess Nam acting as a competitive substrate would block that metabolism. To test this hypothesis, we measured the total amount of 9 in media and cells over time with or without Nam supplementation.
Prior to the experiment, cells were cultured in low-Nam DMEM for at least 1 passage (3 days) to deplete intracellular Nam. 15,000 cells were plated in a 96-well plate with 100 μL low-Nam media. At appropriate time points, 500 nM 1 or 9, or equal volume of vehicle (DMSO) were added using TECAN. 200 μL of acetonitrile with 0.1% formic acid were added to the assayed wells. […] The supernatants were filtered through 0.2 μm PVDF filters and analyzed by LC-MS/TOF.
Initial evaluation of the stability of 9 in the presence and absence of exogenous Nam was performed using LC-MS/MS analysis with a Sciex TripleQuad™ 4500 (AB SCIEX, Framingham, MA, USA) coupled to a Shimadzu (Columbia, MD) Prominence LC. The compound was detected in positive MRM mode following the transition 204.9 to 79.0. […]

SARM1 = experiment: Cytotoxicity in SARM1-knockout versus wild type cells; type: cell-based; conditions: SARM1-knockout vs wild type
Excerpt: (§1) Given that vacor, 3-AP, and compound 21 are all metabolized to toxic, NAD-like derivatives through NAMPT and NMNAT, we hypothesized that their anti-cancer activity may also depend on SARM1. To test this, we compared the toxic effects of vacor, 3-AP, and 9 in either wild type cells or cells in which we used CRISPR to silence SARM1. […] These observations highlight that even though these different scaffolds are toxified through the same mechanism, the resulting metabolites may have different activities. We next co-titrated guanosine, which is known to rescue tiazofurin by bypassing IMPDH in guanylate synthesis, with each of the above small molecules. […] To test this hypothesis, we set up in vitro reactions with different combinations of 9, NAMPT and NMNAT. After incubation, metabolites were extracted, reconstituted in aqueous solution and then co-incubated with an established IMPDH2 enzyme assay.

IMPDH = experiment: Guanosine co-titration rescue; type: cell-based; conditions: guanosine co-titrated
Excerpt: as §1

[3] = tested on: NAMPT activity in S462 cells; experiment: NMN levels in S462 cells (NAMPT activity in cells); type: cell-based, human; conditions: regular DMEM, increasing concentrations of 9, compared with FK866
[4] = resistant clones with unique barcodes

Which results are given for `O=C(Nc1cccs1)c1cccnc1` [Compound 9, N-(Thiophen-2-yl)nicotinamide]?
enrichment of sgRNA reads for NAMPT ([1]; 9-treated cells, 30 days): 2.1 fold; increase in sgRNA reads targeting NMNAT1 ([1]; 9-treated cells, 30 days): 5.2 fold; fewer population doublings ([1]; 9-treated versus vehicle, 30 days): 7.6 population doublings; rank of NAMPT among enriched genes ([1]; out of 19,114 genes): 101; NAMPT levels in 9-resistant clones (iHCT116 cells; [4]): the same in all clones; NMNAT1 protein levels downregulated in 9-resistant clones (iHCT116 cells; [4]): five out of eight clones; difference in number of surviving clones Mut-off vs Mut-on (iHCT116 cells; three lethal selection concentrations of 9): did not observe a substantial difference; decrease in levels of 9 with Nam ([2]; 100 μM Nam, 24 hours): no appreciable decrease; half-life at 0.5 µM ([2]; cells in nam-free dmem, 10% FBS Nam-free DMEM): ~3.8 h; sensitivity of SARM1-knockout cells (SARM1): equally sensitive; guanosine rescue of toxicity (IMPDH): profound dose-dependent rescue; NMN levels in S462 cells [3]: did not reduce the levels of NMN to the same extent as FK866

— patent publication US20260356803A1, “Nicotinamide derivatives” (Board of Regents, The University of Texas System, priority 2024, published 2026)
